In ChEMBL document CHEMBL3797097 (J Med Chem, 2016) one finds Ratio Ki, Ki and EC50 data, which are given here for 13 molecules.

For experiment [1], the species on record is Homo sapiens. As to the kind of experiment: Selectivity index, ratio Ki for human D3 receptor to Ki for human D2 receptor using [3H]N-methylspiperone displacement assay.
Experiment [2] addresses T1, D(3) dopamine receptor (Homo sapiens, UniProt P35462). As to the kind of experiment: Displacement of [3H]N-methylspiperone from human D3 receptor transfected in HEK293 cells measured after 60 mins by liquid scintillation counter. It counts as cell-based.
Experiment [3] deals with T1, D(3) dopamine receptor. The experiment can be described thus: Agonist activity at recombinant human D3 receptor expressing in CHOp cells assessed as receptor mediated stimulation of mitogenesis measured as [3H]thymidine incorporation after 24 hrs by scintillation spectrometry. It counts as cell-based.
The target of experiment [4] is T2, D(2) dopamine receptor (Homo sapiens, UniProt P14416). As to the kind of experiment: Agonist activity at recombinant human D2 receptor expressing in CHOp cells assessed as receptor mediated stimulation of mitogenesis measured as [3H]thymidine incorporation after 24 hrs by scintillation spectrometry. It counts as cell-based. (In general: Incorporation of labelled thymidine or its analogues reports DNA synthesis.)
T2 sequence (P14416 whole entry): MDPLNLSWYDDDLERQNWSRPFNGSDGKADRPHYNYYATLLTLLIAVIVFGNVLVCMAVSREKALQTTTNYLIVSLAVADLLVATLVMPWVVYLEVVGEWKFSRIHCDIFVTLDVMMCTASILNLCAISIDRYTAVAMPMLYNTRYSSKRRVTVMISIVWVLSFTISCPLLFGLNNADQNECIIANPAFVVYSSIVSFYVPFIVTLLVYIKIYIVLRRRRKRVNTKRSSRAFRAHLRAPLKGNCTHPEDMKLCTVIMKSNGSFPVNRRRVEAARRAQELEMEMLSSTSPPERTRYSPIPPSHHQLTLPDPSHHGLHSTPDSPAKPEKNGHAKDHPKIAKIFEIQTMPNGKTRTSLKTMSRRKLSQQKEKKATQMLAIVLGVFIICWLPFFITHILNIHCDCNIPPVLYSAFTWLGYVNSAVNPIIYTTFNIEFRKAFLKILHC

The target in experiment [5] is T1, D(3) dopamine receptor. As to the kind of experiment: Agonist activity at human D3 receptor transfected in HEK293T cells by BRET based G0 activation assay. It is filed as cell-based, HEK-293T.
Experiment [6] addresses T2, D(2) dopamine receptor. As to the kind of experiment: Agonist activity at human D2 receptor transfected in HEK293T cells by BRET based G0 activation assay. It counts as cell-based, HEK-293T. In general terms: Bioluminescence resonance energy transfer reports proximity on the nanometre scale.
For experiment [7], the species on record is Homo sapiens. As to the kind of experiment: Selectivity index, ratio Ki for human D3 receptor to Ki for human D2 receptor using [3H]7-OH-DPAT displacement assay.
For experiment [8], the target named is T2, D(2) dopamine receptor. As to the kind of experiment: biochemical. It is filed as cell-based, HEK293.
In experiment [9] the target is T1, D(3) dopamine receptor. As to the kind of experiment: Displacement of [3H]7-OH-DPAT from human D3 receptor transfected in HEK293 cells measured after 60 mins by liquid scintillation counter. It counts as cell-based. On the technique in general: Displacement assays read how much labelled ligand stays bound in the presence of the test substance.
Experiment [10] concerns the target T2, D(2) dopamine receptor. The experiment can be described thus: biochemical. It is filed as cell-based, HEK293. The source holds these as a separate data set.

Structures are written as SMILES.

T1 sequence (P35462 whole entry): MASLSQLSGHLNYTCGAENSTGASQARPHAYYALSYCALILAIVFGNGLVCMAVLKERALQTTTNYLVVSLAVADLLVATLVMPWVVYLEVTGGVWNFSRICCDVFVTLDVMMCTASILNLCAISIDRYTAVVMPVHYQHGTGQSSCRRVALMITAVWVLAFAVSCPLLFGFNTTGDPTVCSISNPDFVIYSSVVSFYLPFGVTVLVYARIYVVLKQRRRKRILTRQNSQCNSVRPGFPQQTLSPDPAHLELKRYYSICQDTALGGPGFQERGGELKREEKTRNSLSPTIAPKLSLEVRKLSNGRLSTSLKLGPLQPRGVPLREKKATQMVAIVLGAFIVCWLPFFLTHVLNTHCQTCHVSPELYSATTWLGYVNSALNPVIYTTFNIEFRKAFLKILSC

As to `CN(CCCCNC(=O)c1ccc2c(c1)Cc1ccccc1-2)[C@@H]1Cc2cccc3[nH]c(=O)n(c23)C1`, the Ratio Ki in the experiment listed under Homo sapiens [1] amounted to 0.29; in the experiment listed under Homo sapiens [7], 2.3. Besides, the Ki (usually the equilibrium dissociation constant of an inhibitor or competing ligand from its target) at D(3) dopamine receptor [2] stood at 1090 nM; at D(2) dopamine receptor [8], 5.47 nM; at D(3) dopamine receptor [9], 12.5 nM; at D(2) dopamine receptor [10] it was 3700 nM. Also, the EC50 (usually the concentration needed to bring the measured effect to its halfway point) at D(3) dopamine receptor [3] was found to be 11.9 nM; on D(2) dopamine receptor [4] it was 102 nM; on D(3) dopamine receptor [5], 125 nM; at D(2) dopamine receptor [6], 109 nM.
Take `CCCCn1c(=O)n2c3c(cccc31)C[C@@H](NC)C2`: the results for the Ratio Ki in the experiment filed under Homo sapiens [1] and in the experiment listed under Homo sapiens [7] were 0.03 and 11, respectively. In addition, the Ki at D(3) dopamine receptor [2] is 10.3 nM; at D(2) dopamine receptor [8], 12.8 nM; at D(3) dopamine receptor [9], 142 nM; on D(2) dopamine receptor [10], 361 nM. The half-maximal effective concentration (EC50) on D(3) dopamine receptor [3] was determined as 22 nM; on D(2) dopamine receptor [4], 83 nM; at D(3) dopamine receptor [5], 25.6 nM; on D(2) dopamine receptor [6], 30.5 nM.
Take `CN(CCCCNC(=O)c1cc2ccccc2[nH]1)[C@@H]1Cc2cccc3[nH]c(=O)n(c23)C1`: the Ki on D(3) dopamine receptor [2] was found to be 337 nM; on D(3) dopamine receptor [9] it was 76.9 nM. Moreover, the EC50 at D(3) dopamine receptor [3] was determined as 53 nM; at D(3) dopamine receptor [5], 94.3 nM.
`CCCN(CCC)[C@@H]1Cc2cccc3nc(O)n(c23)C1`: the Ratio Ki in the experiment filed under Homo sapiens [7] was found to be 2.4.
On to `CCCN[C@@H]1Cc2cccc3nc(O)n(c23)C1`, for which the inhibition constant (Ki) at D(3) dopamine receptor [2] came to 410 nM; on D(3) dopamine receptor [9] it was 25.5 nM. Moreover, the concentration giving a half-maximal response (EC50) stood at 0.81 nM at D(3) dopamine receptor [3] and 18.3 nM at D(3) dopamine receptor [5].
For `CCCN(CCC)[C@@H]1Cc2cccc3[nH]c(=O)n(c23)C1`, the concentration giving a half-maximal response (EC50) on D(3) dopamine receptor [5] turned out to be 21.8 nM; on D(2) dopamine receptor [6] it was 2.53 nM. The Ki is 11.4 nM at D(2) dopamine receptor [8] and 27.1 nM at D(3) dopamine receptor [9].
Take `CCCN(C)[C@@H]1Cc2cccc3[nH]c(=O)n(c23)C1`: the Ratio Ki stood at 0.25 in the experiment listed under Homo sapiens [1] and 8.3 in the experiment filed under Homo sapiens [7]. Besides, the inhibition constant Ki on D(3) dopamine receptor [2] came to 290 nM; at D(2) dopamine receptor [8], 12.5 nM; on D(3) dopamine receptor [9], 104 nM; at D(2) dopamine receptor [10] it was 1180 nM. For the same molecule, the EC50 on D(3) dopamine receptor [3] amounted to 148 nM; on D(2) dopamine receptor [4], 18.1 nM; at D(3) dopamine receptor [5] it was 30.7 nM; on D(2) dopamine receptor [6] it was 29 nM.
Take `CCCN[C@@H]1Cc2cccc3c2n(c(=O)n3CCC)C1`: the Ratio Ki came to 0.06 in the experiment listed under Homo sapiens [1] and 2.7 in the experiment filed under Homo sapiens [7]. The Ki on D(3) dopamine receptor [2] was found to be 47.9 nM; at D(2) dopamine receptor [8] it was 8.08 nM; at D(3) dopamine receptor [9], 21.7 nM; at D(2) dopamine receptor [10] it was 868 nM. Besides, the concentration for a half-maximal effect (EC50) at D(3) dopamine receptor [3] stood at 56.1 nM; on D(2) dopamine receptor [4], 13 nM; at D(3) dopamine receptor [5], 1420 nM; at D(2) dopamine receptor [6], 68 nM.
For `CCCN(CCC)[C@@H]1Cc2cccc3c2n(c(=O)n3CCC)C1`, the Ratio Ki turned out to be 0.04 in the experiment filed under Homo sapiens [1] and 1.3 in the experiment listed under Homo sapiens [7]. Besides, the Ki at D(3) dopamine receptor [2] was determined as 6.05 nM; at D(2) dopamine receptor [8], 2.59 nM; at D(3) dopamine receptor [9], 3.39 nM; at D(2) dopamine receptor [10], 146 nM. The EC50 at D(3) dopamine receptor [3] was 3.7 nM; on D(2) dopamine receptor [4], 13.7 nM; at D(3) dopamine receptor [5], 51.9 nM; on D(2) dopamine receptor [6] it was 33.9 nM.
Consider `CCCn1c(=O)n2c3c(cccc31)C[C@@H](NC)C2`, for which the Ratio Ki in the experiment listed under Homo sapiens [1] turned out to be 0.25; in the experiment filed under Homo sapiens [7], 7.5. Also, the inhibition constant (Ki) at D(3) dopamine receptor [2] stood at 187 nM; on D(2) dopamine receptor [8] it was 13.2 nM; on D(3) dopamine receptor [9], 99.5 nM; on D(2) dopamine receptor [10], 751 nM. The concentration giving a half-maximal response (EC50) at D(3) dopamine receptor [3] amounted to 178 nM; on D(2) dopamine receptor [4] it was 549 nM; on D(3) dopamine receptor [5] it was 53.7 nM; at D(2) dopamine receptor [6] it was 38.7 nM.
As for `CN[C@@H]1Cc2cccc3[nH]c(=O)n(c23)C1` [SUMANIROLE], the Ki at D(3) dopamine receptor [2] was 6330 nM; at D(3) dopamine receptor [9], 546 nM. For the same molecule, the half-maximal effective concentration (EC50) was found to be 669 nM on D(3) dopamine receptor [3] and 186 nM on D(3) dopamine receptor [5].
Regarding `N[C@@H]1Cc2cccc3[nH]c(=O)n(c23)C1`, the figures for the Ratio Ki in the experiment listed under Homo sapiens [1] and in the experiment listed under Homo sapiens [7] were 0.98 and 30, respectively. Moreover, the Ki on D(3) dopamine receptor [2] stood at 11800 nM; on D(2) dopamine receptor [8], 114 nM; on D(3) dopamine receptor [9], 3390 nM; on D(2) dopamine receptor [10] it was 12100 nM. The concentration for a half-maximal effect (EC50) worked out at 3400 nM on D(3) dopamine receptor [3], 684 nM on D(2) dopamine receptor [4], 1890 nM at D(3) dopamine receptor [5] and 697 nM on D(2) dopamine receptor [6].
As for `CN[C@@H]1Cc2cc(C#N)cc3[nH]c(=O)n(c23)C1`, the results for the inhibition constant (Ki) at D(3) dopamine receptor [2] and on D(2) dopamine receptor [8] were 27200 nM and 5120 nM, respectively.
